The source of these data is patent US9701709B2 (REATA PHARMACEUTICALS, INC., priority 2012, dated 2017).

“And” between values parts separate entries of the source, which are not always exact repeats. Identical values can stand only once.

The test system of data set [1] is RANKL-induced osteoclastogenesis in RAW264.7. As to the kind of experiment: RANKL-induced osteoclastogenesis (TRAP activity) in RAW264.7. The data set is classed as cell-based. The note with it: Mus musculus, 96 h, 50 ng/mL RANKL, four days, read-out: IC50, RANKL-induced TRAP activity and formation of osteoclasts. The procedure: STAT3 (124H6) and phospho-STAT3 (Tyr705) monoclonal antibodies were from Cell Signaling Technology. Peroxidase-conjugated Affini-pure Goat anti-Rabbit IgG and Peroxidase-conjugated Affini-pure Goat anti-Mouse IgG were from Jackson ImmunoResearch. Osteoclastogenesis is a multi-step differentiation process that results from the binding of RANKL to its receptor, RANK, on cells of hematopoietic origin. […] RAW 264.7 cells were plated in 24-well plates at a density of 5,000 cells/well. […] The treated cells were incubated for four days to allow differentiation into osteoclasts. Differentiation into osteoclasts was assessed by measuring TRAP activity. In brief, 90 μl of conditioned cell culture media was removed from each test well and aliquoted into triplicate wells (30 μL/well) of a 96-well plate. 170 μL of TRAP Assay buffer (Kamiya Biomedical) was then added to each well and the plate was incubated at 37° C. for 3 hours. Following the incubation, absorbance at 540 nm was determined using a Spectramax M2 plate reading spectrophotometer.

The test system of data set [2] is Alt1, Alt2, Ast1, Ast2 mRNA in AML-12 hepatocytes. The data set is described as follows: Transaminase gene mRNA (qPCR) in AML-12. The data set is classed as cell-based, mouse. The note with it: 250 nM or 500 nM, 18 h. The protocol: One hypothesis for this effect is that AIMs directly or indirectly increase transaminase gene expression in the absence of cellular toxicity. […] AML-12 cells were plated in 6-well culture dishes at 3×10^5 cells per well using 2 mL of media per well. […] Each well received 0.1% DMSO. Three independent replicate experiments were performed. Following treatment, media was removed and cells were harvested using RLT buffer (Qiagen). Lysates were homogenized using QIAShredder columns (Qiagen, Catalog #79654) and RNA was isolated using RNeasy Mini kits (Qiagen, Catalog #74104). For reverse transcription, RNA (1 μg) was combined with Oligo(dT)12-18 primer and H2O in a final volume of 23.25 μL. The mixture was heated to 70° C. for 10 min and then placed on ice. A master mix containing 8 μL 5×1st strand buffer, 2 μL 1 mg/ml BSA, 2 μL 20 mM DTT, 4 μL 5 mM dNTP mix, 0.25 μL RNaseOUTTM and 0.5 μL […]® II reverse transcriptase was added to the RNA mixture and incubated at 42° C. for 1 h. The reaction was inactivated by heating to 70° C. for 10 min. The reaction mixture was diluted 1:3 with H2O prior to use in qPCR. 2.5 μL of the diluted reverse transcription reaction was combined with one set of PCR primers (0.36 μM final concentration), 2× iQTM SYBR® Green Supermix (Bio-Rad, Catalog #170-8885) and H2O to a final volume of 20 pt. Sequences for PCR primers are as follows: […] All primers had previously been validated for specificity and amplification efficiency. cDNA was amplified using the following cycle conditions: (95° C. for 3 min, 44 cycles of 95° C. for 30 sec, 60° C. for 15 sec, 72° C. for 15 sec, followed by a melt curve of 55° C. to 95° C. in increments of 0.5° C.). The relative abundance of each target gene was determined using the comparative CT method (ΔΔCT). PCR reactions were run in triplicate wells for each sample.
In general terms: Quantitative PCR measures a nucleic acid by following its amplification.

For data set [3], the system named is LPS-induced sepsis. The settings on record: mouse, in vivo.
Data set [4] concerns neurobehavioral measures. As to the kind of experiment: Neurobehavioral evaluation (FOB) in rats. The data set is classed as in vivo, rat. The procedure:
One additional group of 10 animals/sex served as the control and received vehicle (sesame oil).
Observations for morbidity, mortality, injury, and availability of food and water were conducted twice daily for all animals. Observations for clinical signs were conducted prior to dosing on Day 1 and following each functional observational battery (FOB) evaluation. FOB evaluations were conducted pre-dose (Day −1) and at approximately 4 and 24 h post-dose. Body weights were measured and recorded pre-dose on Day 1.

The test system of data set [5] is CYP3A4/5. The data set is described as follows: CYP450 inhibition in pooled human liver microsomes, CYP3A4/5. The data set is classed as in vitro ADME. The note with it: read-out: Ki, direct inhibition of CYP3A4/5. The text has this: (§1) In addition, there was little or no evidence of metabolism-dependent inhibition of any of the enzymes tested.
Background: Microsomes from liver hold many membrane-bound enzymes, among them those of drug oxidation.

In data set [6] the target is CYP2C19 (Homo sapiens, UniProt P33261). The data set is described as follows: CYP450 inhibition in pooled human liver microsomes, CYP2C19. In kind it is in vitro ADME. The settings on record: highest concentration tested (3 μM).
Text: as §1

Data set [7] deals with C4-2B-Luc and DU145-Luc human prostate cancer tumors. As to the kind of experiment: Pilot in vivo prostate tumor model with ionizing radiation (luciferase imaging). Details: species or system mouse. The note with it: 17.5 mg/kg i.p. plus 18 Gy; n=1. The procedure:
The colors indicated by the arrows are indicative of intensity with the intensities being represented by red, yellow, green, and blue in order from highest to lowest intensity.
After the successful results of the in vitro assay, a pilot in vivo assay was carried out using LNCaP/C4-2B and DU145 human prostate cancer engineered to express firefly luciferase (hereafter referred to as C4-2B-Luc and DU145-Luc, respectively). Of note, both of these cell lines grow in an androgen-independent fashion. Cells were cultured in RPMI 1640 supplemented with 10% FBS. Cells were harvested using TrypLE Express (Invitrogen) and washed in PBS and counted. Cells were reconstituted in PBS to arrive at a final concentration of 3×10^6 cells per 30 μL (unless otherwise stated) and aliquoted in separate tubes. Growth factor-reduced Matrigel (BD Bioscience) was thawed overnight at +4° C. and transferred into the tubes in 30 μL aliquots. The cell/Matrigel solutions were transferred to the vivarium and mixed right before injection at a 1:1 ratio. Each mouse (n=1 per group for a total of three animals) received a single subcutaneous injection of the tumor cells. Tumors were pre-established for 4 weeks. […] Tumor progression was monitored weekly via live imaging. […] For standardization, minimal exposure time necessary to image control tumor was determined and all animals were imaged under these conditions. […]

CYP2C19, sequence (P33261 whole entry): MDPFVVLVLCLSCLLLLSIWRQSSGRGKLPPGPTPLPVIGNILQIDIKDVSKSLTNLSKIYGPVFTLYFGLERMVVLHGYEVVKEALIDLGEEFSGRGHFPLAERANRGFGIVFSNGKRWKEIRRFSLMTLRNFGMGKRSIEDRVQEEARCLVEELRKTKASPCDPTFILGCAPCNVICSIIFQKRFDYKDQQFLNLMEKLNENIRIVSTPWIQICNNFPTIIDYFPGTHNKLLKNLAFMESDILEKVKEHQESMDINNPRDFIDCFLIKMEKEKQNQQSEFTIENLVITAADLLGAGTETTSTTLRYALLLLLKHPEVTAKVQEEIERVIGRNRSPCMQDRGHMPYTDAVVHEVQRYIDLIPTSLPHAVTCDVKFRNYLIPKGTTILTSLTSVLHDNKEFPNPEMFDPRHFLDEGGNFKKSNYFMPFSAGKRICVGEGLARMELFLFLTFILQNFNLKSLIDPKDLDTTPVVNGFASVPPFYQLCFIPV

Usually IC50 stands for the concentration at which inhibition is half-maximal. What is called inhibition is the drop in the measured response relative to a control, in per cent. A high value points to a response far below the control. Regarding `CC1(C)CC[C@]2(NC(=O)C(C)(F)F)CC[C@]3(C)[C@H](C(=O)C=C4[C@@]5(C)C=C(C#N)C(=O)C(C)(C)[C@@H]5CC[C@]43C)[C@@H]2C1` [RTA 408, N-((4aS,6aR,6bS,8aR,12aS,14aR,14bS)-11-cyano-2,2,6a,6b,9,9,12a-heptamethyl-10,14-dioxo-1,2,3,4,4a,5,6,6a,6b,7,8,8a,9,10,12a,14,14a,14b-octadecahydropicen-4a-yl)-2,2-difluoropropanamide], the IC50 in data set [1] fell in the range of 5 to 10 nM. For the same molecule, in data set [2], the “mRNA levels of alanine transaminase 1 (Alt1 or Gpt1)” value was “increased mRNA levels of alanine transaminase 1”, the “mRNA levels of alanine transaminase 2 (Alt2 or Gpt2)” value was “no effect”, the “mRNA levels of aspartate transaminase 1 (Ast1 or Got1)” value is reported as “increased mRNA levels” and the “mRNA levels of aspartate transaminase 2 (Ast2 or Got2)” value was “reduced mRNA levels”. In data set [3], the “Animals surviving until Day 4” value was 80% and 90%; the “Survival, systemic LPS” value was “improved survival”. Besides, in data set [4] (30 mg/kg), the “Body weight gain approximately 24 h after dosing” value is given as “Slight decreases in body weight gain”. Moreover, the Neurobehavioral endpoints entry in data set [4] (single oral dose up to and including 30 mg/kg) was “did not produce any adverse effects”. In data set [5], the Ki is approximately 500 nM. Also, the inhibition at 3 µM in data set [6] is less than 50%. Further, the “Tumor image (luciferase), RTA 408 plus ionizing radiation” value in data set [7] was “no visible tumor on Day 21”.
